ChEMBL document CHEMBL2163199, “Moderate chemical modifications of WAY-100635 improve the selectivity for 5-HT1A versus D4 receptors” (Bioorg Med Chem Lett, 2012)
Active and inactive are the calls of the source. The calls are words filed in the database; no cut-off is given here.

Legend:
[1] = molecular target: T1, D(4) dopamine receptor (Homo sapiens, UniProt P21917); assay: biochemical
T1 sequence (P21917 whole entry): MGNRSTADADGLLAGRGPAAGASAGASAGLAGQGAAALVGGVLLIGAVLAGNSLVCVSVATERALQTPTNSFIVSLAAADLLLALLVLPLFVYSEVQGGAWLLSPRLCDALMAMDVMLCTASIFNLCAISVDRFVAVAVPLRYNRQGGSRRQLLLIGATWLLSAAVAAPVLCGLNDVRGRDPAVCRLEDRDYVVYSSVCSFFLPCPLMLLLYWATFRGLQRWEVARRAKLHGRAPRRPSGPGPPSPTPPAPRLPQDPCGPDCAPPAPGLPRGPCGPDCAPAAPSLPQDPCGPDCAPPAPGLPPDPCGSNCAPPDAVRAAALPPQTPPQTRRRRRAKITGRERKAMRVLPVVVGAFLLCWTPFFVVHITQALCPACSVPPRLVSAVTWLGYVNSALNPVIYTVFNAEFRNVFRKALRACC
Description: Displacement of [3H]-YM-09151-2 from human cloned D4 receptor expressed in Sf9 cells after 60 mins by liquid scintillation counting

[2] = molecular target: T2, 5-hydroxytryptamine receptor 1A (Homo sapiens, UniProt P08908); assay: biochemical
T2 sequence (P08908 whole entry): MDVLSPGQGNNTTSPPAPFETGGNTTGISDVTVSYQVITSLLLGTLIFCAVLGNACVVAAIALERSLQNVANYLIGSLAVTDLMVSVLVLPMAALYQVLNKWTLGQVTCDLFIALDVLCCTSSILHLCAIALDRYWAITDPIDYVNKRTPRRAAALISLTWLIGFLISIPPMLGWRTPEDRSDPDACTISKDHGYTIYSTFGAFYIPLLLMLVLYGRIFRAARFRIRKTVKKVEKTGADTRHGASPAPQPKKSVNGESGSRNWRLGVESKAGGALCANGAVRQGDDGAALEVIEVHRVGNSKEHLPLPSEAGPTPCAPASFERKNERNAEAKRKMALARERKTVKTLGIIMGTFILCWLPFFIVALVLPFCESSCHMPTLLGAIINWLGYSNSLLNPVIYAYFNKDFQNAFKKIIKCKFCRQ
Description: Displacement of [3H]8-OH-DPAT from human cloned 5-HT1A receptor expressed in CHO cells after 60 mins by liquid scintillation counting

[3] = buffer, pH 7.4
Description: Lipophilicity, log K of the compound in 50 mM PBS at pH 7.4-10 to 60% methanol mixture by HPLC method

[4] = molecular target: 5-hydroxytryptamine receptor 6 (Homo sapiens) (UniProt P50406); assay: Binding affinity to 5HT6 receptor at 10 uM by radioligand binding assay
[5] = molecular target: 5-hydroxytryptamine receptor 1D (Homo sapiens) (UniProt P28221); assay: Binding affinity to 5HT1D receptor at 10 uM by radioligand binding assay
[6] = molecular target: 5-hydroxytryptamine receptor 1B (Homo sapiens) (UniProt P28222); assay: Binding affinity to 5HT1B receptor at 10 uM by radioligand binding assay
[7] = molecular target: Histamine H3 receptor (Homo sapiens) (UniProt Q9Y5N1); assay: Binding affinity to histamine H3 receptor at 10 uM by radioligand binding assay
[8] = molecular target: Muscarinic acetylcholine receptor M3 (Homo sapiens) (UniProt P20309); assay: Binding affinity to muscarinic M3 receptor at 10 uM by radioligand binding assay
[9] = molecular target: D(3) dopamine receptor (Homo sapiens) (UniProt P35462); assay: Binding affinity to dopamine D3 receptor at 10 uM by radioligand binding assay
[10] = molecular target: 5-hydroxytryptamine receptor 1E (Homo sapiens) (UniProt P28566); assay: Binding affinity to 5HT1E receptor at 10 uM by radioligand binding assay
[11] = molecular target: Muscarinic acetylcholine receptor M4 (Homo sapiens) (UniProt P08173); assay: Binding affinity to muscarinic M4 receptor at 10 uM by radioligand binding assay
[12] = molecular target: Alpha-1A adrenergic receptor (Homo sapiens, UniProt P35348); assay: Binding affinity to adrenergic alpha1A receptor by radioligand binding assay; conditions: read-out: Ki(app)
[13] = molecular target: D(1A) dopamine receptor (Homo sapiens) (UniProt P21728); assay: Binding affinity to dopamine D1 receptor at 10 uM by radioligand binding assay
[14] = molecular target: Alpha-2A adrenergic receptor (Homo sapiens) (UniProt P08913); assay: Binding affinity to adrenergic alpha2A receptor at 10 uM by radioligand binding assay
[15] = molecular target: Sigma non-opioid intracellular receptor 1 (Homo sapiens) (UniProt Q99720); assay: Binding affinity to sigma 1 receptor at 10 uM by radioligand binding assay
[16] = molecular target: Alpha-1B adrenergic receptor (Homo sapiens, UniProt P35368)
Description: Binding affinity to adrenergic alpha1B receptor by radioligand binding assay

[17] = molecular target: D(1B) dopamine receptor (Homo sapiens) (UniProt P21918); assay: Binding affinity to dopamine D5 receptor at 10 uM by radioligand binding assay
[18] = Binding affinity to rat benzodiazepine binding site at 10 uM by radioligand binding assay
[19] = molecular target: 5-hydroxytryptamine receptor 2B (Homo sapiens, UniProt P41595); assay: Binding affinity to 5HT2B receptor by radioligand binding assay; conditions: read-out: Ki(app)
[20] = molecular target: Muscarinic acetylcholine receptor M2 (Homo sapiens) (UniProt P08172); assay: Binding affinity to muscarinic M2 receptor at 10 uM by radioligand binding assay
[21] = molecular target: Sodium-dependent dopamine transporter (Homo sapiens) (UniProt Q01959); assay: Binding affinity to DAT at 10 uM by radioligand binding assay
[22] = molecular target: Beta-3 adrenergic receptor (Homo sapiens) (UniProt P13945); assay: Binding affinity to adrenergic beta3 receptor at 10 uM by radioligand binding assay
[23] = Binding affinity to GABAA receptor at 10 uM by radioligand binding assay
[24] = molecular target: 5-hydroxytryptamine receptor 5A (Homo sapiens) (UniProt P47898); assay: Binding affinity to 5HT5A receptor at 10 uM by radioligand binding assay
[25] = molecular target: 5-hydroxytryptamine receptor 2C (Homo sapiens) (UniProt P28335); assay: Binding affinity to 5HT2C receptor at 10 uM by radioligand binding assay
[26] = molecular target: Beta-1 adrenergic receptor (Homo sapiens) (UniProt P08588); assay: Binding affinity to adrenergic beta1 receptor at 10 uM by radioligand binding assay
[27] = molecular target: Alpha-2B adrenergic receptor (Homo sapiens) (UniProt P18089); assay: Binding affinity to adrenergic alpha2B receptor at 10 uM by radioligand binding assay
[28] = molecular target: 5-hydroxytryptamine receptor 7 (Homo sapiens, UniProt P34969)
Description: Binding affinity to 5HT7 receptor by radioligand binding assay

[29] = molecular target: T2, 5-hydroxytryptamine receptor 1A
Description: Binding affinity to 5HT1A receptor by radioligand binding assay

[30] = molecular target: T1, D(4) dopamine receptor
Description: Binding affinity to dopamine D4 receptor by radioligand binding assay

[31] = Binding affinity to sigma 2 receptor at 10 uM by radioligand binding assay
[32] = molecular target: 5-hydroxytryptamine receptor 2A (Homo sapiens, UniProt P28223); assay: Binding affinity to 5HT2A receptor by radioligand binding assay; conditions: read-out: Ki(app)
[33] = molecular target: Beta-2 adrenergic receptor (Homo sapiens) (UniProt P07550); assay: Binding affinity to adrenergic beta2 receptor at 10 uM by radioligand binding assay
[34] = molecular target: D(2) dopamine receptor (Homo sapiens) (UniProt P14416); assay: Binding affinity to dopamine D2 receptor at 10 uM by radioligand binding assay
[35] = molecular target: Muscarinic acetylcholine receptor M1 (Homo sapiens) (UniProt P11229); assay: Binding affinity to muscarinic M1 receptor at 10 uM by radioligand binding assay
[36] = molecular target: 5-hydroxytryptamine receptor 3A (Homo sapiens) (UniProt P46098); assay: Binding affinity to 5HT3 receptor at 10 uM by radioligand binding assay
[37] = molecular target: T3, 5-hydroxytryptamine receptor 1A (Rattus norvegicus) (UniProt P19327); assay: Agonist activity of 5-HT1A receptor in Wistar rat dorsal raphe serotonergic neuron assessed as inhibition of firing at 1 nM to 1 uM by electrophysiological test; type: functional
T3 sequence (whole entry): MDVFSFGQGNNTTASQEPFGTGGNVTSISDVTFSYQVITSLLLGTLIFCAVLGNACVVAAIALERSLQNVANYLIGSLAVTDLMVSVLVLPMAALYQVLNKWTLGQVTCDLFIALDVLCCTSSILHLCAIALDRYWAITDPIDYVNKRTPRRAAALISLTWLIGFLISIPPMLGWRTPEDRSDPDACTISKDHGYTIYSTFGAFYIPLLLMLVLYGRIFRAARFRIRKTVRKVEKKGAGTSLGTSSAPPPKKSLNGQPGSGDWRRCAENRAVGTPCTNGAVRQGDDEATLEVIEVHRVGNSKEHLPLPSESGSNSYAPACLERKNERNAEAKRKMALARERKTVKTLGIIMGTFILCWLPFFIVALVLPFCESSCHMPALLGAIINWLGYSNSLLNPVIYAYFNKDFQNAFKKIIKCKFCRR

[38] = molecular target: T3, 5-hydroxytryptamine receptor 1A (Rattus norvegicus); assay: Antagonist activity of 5-HT1A receptor in Wistar rat dorsal raphe serotonergic neuron assessed as reversal of 8-OH-DPAT-induced decrease in firing rate at 100 nM by electrophysiological test; type: functional; set-up: scale not given: the % may be the effect or the level left
[39] = molecular target: Muscarinic acetylcholine receptor M5 (Homo sapiens) (UniProt P08912); assay: Binding affinity to muscarinic M5 receptor at 10 uM by radioligand binding assay

Chain of Alpha-2B adrenergic receptor (Homo sapiens) (P18089 whole entry): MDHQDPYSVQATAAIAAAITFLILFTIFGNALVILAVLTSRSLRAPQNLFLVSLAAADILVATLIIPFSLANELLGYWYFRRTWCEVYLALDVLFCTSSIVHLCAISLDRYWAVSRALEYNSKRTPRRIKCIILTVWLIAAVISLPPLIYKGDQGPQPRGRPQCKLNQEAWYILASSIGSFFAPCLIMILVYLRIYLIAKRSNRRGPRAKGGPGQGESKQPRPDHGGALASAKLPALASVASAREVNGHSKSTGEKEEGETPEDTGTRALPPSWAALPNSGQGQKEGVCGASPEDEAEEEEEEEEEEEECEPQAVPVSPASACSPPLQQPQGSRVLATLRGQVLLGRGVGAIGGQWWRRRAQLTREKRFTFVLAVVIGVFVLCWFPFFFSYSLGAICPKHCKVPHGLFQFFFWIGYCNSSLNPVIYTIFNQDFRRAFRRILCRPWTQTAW
Chain of Muscarinic acetylcholine receptor M1 (Homo sapiens) (P11229 whole entry): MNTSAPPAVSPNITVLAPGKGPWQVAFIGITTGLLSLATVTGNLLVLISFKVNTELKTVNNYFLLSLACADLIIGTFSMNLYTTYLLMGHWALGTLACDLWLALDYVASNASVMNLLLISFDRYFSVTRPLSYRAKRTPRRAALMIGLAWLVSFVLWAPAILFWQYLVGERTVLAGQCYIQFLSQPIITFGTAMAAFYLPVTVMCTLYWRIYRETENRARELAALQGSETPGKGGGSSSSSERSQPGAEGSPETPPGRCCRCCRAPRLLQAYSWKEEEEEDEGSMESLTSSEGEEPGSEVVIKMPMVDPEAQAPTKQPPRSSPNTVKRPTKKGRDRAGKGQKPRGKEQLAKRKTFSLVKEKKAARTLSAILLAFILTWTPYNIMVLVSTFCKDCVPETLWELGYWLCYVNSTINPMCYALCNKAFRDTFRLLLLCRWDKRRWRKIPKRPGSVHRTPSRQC
Chain of Beta-3 adrenergic receptor (Homo sapiens) (P13945 whole entry, looked up): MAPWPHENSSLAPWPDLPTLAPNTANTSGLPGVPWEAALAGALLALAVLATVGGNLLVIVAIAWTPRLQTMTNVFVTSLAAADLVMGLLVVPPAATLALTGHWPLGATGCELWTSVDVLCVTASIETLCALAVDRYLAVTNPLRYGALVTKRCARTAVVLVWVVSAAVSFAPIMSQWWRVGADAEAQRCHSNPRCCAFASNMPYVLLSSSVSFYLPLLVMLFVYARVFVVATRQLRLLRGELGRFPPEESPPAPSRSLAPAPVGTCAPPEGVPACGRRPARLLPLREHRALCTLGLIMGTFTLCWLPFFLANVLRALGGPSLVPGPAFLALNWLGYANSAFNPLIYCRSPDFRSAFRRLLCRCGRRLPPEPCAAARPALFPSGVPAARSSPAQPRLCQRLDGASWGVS
Chain of Muscarinic acetylcholine receptor M4 (Homo sapiens) (P08173 whole entry): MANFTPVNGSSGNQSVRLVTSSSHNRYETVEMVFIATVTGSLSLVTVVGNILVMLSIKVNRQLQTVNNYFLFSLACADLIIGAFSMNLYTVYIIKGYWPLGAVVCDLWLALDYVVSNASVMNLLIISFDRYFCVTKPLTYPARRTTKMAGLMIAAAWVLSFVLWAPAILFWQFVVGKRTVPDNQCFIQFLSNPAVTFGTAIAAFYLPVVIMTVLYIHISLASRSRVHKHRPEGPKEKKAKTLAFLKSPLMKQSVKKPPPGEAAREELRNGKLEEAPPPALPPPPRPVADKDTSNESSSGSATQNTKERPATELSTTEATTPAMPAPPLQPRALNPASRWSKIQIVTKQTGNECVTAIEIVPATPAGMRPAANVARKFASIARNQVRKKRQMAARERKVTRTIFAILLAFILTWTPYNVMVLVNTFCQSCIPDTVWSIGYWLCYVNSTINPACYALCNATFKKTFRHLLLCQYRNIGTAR
Chain of Sigma non-opioid intracellular receptor 1 (Homo sapiens) (Q99720 whole entry): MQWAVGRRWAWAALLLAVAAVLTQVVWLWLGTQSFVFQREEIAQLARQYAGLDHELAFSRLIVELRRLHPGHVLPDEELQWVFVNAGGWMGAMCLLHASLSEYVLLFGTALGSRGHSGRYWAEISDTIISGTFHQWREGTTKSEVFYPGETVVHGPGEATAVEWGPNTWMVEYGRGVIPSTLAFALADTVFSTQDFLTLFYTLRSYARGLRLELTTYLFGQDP
Chain of 5-hydroxytryptamine receptor 3A (Homo sapiens) (P46098 whole entry): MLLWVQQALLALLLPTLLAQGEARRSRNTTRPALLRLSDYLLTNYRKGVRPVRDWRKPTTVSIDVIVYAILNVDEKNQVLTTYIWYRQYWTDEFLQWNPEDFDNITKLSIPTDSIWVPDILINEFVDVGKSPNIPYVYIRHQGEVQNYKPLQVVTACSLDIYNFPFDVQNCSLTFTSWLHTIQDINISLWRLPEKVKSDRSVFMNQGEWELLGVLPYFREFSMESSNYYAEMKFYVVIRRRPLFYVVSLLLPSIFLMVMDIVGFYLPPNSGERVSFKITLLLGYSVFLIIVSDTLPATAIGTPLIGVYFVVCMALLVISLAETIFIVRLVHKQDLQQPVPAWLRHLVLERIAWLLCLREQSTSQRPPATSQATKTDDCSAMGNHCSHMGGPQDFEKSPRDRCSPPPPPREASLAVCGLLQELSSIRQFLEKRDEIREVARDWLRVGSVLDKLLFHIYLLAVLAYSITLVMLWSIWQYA
Chain of Histamine H3 receptor (Homo sapiens) (Q9Y5N1 whole entry): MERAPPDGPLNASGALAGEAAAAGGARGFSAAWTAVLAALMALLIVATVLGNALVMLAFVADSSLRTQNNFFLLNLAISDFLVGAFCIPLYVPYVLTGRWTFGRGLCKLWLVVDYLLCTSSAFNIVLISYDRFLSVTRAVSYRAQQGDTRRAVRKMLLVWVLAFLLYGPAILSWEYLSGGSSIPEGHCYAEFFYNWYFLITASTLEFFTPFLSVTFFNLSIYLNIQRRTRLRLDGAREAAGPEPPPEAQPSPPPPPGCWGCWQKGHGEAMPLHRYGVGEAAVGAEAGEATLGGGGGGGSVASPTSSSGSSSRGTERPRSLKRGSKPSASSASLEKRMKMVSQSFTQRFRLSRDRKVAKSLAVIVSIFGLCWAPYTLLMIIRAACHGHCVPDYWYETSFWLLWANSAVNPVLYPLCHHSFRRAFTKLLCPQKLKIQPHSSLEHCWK
Chain of 5-hydroxytryptamine receptor 1B (Homo sapiens) (P28222 whole entry): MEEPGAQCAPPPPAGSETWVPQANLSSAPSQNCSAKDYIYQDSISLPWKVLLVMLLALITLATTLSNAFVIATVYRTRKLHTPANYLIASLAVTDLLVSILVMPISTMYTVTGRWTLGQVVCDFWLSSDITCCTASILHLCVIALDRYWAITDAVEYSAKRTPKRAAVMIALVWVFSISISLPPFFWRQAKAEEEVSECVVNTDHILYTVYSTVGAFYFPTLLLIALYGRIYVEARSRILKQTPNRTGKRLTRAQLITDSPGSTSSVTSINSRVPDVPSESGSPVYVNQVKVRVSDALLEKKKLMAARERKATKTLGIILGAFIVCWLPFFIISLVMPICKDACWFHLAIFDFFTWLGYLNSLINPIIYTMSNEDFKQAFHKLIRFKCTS
Chain of 5-hydroxytryptamine receptor 2C (Homo sapiens) (P28335 whole entry): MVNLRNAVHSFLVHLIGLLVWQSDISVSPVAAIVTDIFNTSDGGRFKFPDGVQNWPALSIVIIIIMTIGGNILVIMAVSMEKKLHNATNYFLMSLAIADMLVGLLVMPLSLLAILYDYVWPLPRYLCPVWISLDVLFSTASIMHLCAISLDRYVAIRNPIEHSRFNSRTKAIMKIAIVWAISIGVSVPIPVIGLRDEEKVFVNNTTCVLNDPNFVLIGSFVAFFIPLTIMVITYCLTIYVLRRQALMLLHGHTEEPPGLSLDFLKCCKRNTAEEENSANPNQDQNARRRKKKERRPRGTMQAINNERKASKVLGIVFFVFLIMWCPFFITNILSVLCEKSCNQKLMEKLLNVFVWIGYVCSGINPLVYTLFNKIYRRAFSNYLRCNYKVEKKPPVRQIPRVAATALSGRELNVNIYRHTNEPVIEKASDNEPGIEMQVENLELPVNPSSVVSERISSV
Chain of D(1A) dopamine receptor (Homo sapiens) (P21728 whole entry): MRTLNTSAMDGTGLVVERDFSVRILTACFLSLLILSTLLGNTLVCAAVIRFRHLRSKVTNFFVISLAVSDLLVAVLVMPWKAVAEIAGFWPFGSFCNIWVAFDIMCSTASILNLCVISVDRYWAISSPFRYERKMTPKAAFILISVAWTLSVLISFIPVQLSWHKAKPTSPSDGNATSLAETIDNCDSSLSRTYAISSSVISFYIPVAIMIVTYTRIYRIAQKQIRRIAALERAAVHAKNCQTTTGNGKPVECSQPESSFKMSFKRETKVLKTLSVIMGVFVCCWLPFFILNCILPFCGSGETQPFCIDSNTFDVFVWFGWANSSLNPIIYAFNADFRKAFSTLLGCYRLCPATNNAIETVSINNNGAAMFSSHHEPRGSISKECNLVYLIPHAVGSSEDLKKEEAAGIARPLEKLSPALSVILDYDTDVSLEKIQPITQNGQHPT
Chain of 5-hydroxytryptamine receptor 5A (Homo sapiens) (P47898 whole entry): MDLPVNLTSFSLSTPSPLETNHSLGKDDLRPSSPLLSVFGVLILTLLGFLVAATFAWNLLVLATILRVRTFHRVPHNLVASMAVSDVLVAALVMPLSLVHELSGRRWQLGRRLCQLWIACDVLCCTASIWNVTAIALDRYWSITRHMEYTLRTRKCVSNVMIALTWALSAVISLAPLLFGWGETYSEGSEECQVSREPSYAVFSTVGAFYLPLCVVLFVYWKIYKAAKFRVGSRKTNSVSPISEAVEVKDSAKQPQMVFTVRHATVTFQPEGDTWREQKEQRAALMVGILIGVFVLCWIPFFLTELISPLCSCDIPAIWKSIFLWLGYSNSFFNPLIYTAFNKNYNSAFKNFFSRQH

**Q.** With `COc1ccccc1N1CCN(CCN(C(=O)c2ccc3ccccc3c2)c2ccccn2)CC1` as the molecule, how does the Ki [1] read?
**A.** 184 nM

**Q.** And the Ki [2]?
**A.** 1.61 nM

**Q.** What about the “log K” value [3] of the same molecule?
**A.** 3.57

**Q.** With `O=C(c1cnc2ccccc2n1)N(CCN1CCN(c2ccccc2)CC1)c1ccccn1` as the molecule, how does the Ki [1] read?
**A.** 56.8 nM

**Q.** What about the Ki [2] of the same molecule?
**A.** 36.2 nM

**Q.** And the “log K” value [3]?
**A.** 3.06

**Q.** For `O=C(c1ccc2ccccc2c1)N(CCN1CCN(c2ccccc2)CC1)c1ccccn1`, which Ki [1] is on record?
**A.** 807 nM

**Q.** And the Ki [2]?
**A.** 16.3 nM

**Q.** And the “log K” value [3]?
**A.** 3.48

**Q.** For `O=C(c1ccc2ccccc2c1)N(CCN1CC=C(c2ccccc2)CC1)c1ccccn1`, which Ki [1] is on record?
**A.** 291 nM

**Q.** What about the Ki [2] of the same molecule?
**A.** 8.36 nM

**Q.** And the “log K” value [3]?
**A.** 4.36

**Q.** Which Ki [1] does the source give for `COc1ccccc1N1CCN(CCN(C(=O)c2cnc3ccccc3n2)c2ccccn2)CC1` here?
**A.** 15 nM

**Q.** And the Ki [2]?
**A.** 2.48 nM

**Q.** What about the “log K” value [3] of the same molecule?
**A.** 2.61

**Q.** Which inhibition [4] does the source give for `O=C(C1CCCCC1)N(CCN1CCN(c2ccccc2)CC1)c1ccccn1` here?
**A.** < 50%

**Q.** What about the inhibition [5] of the same molecule?
**A.** < 50%

**Q.** And the inhibition [6]?
**A.** < 50%

**Q.** And the inhibition [7]?
**A.** < 50%

**Q.** And the Ki [1]?
**A.** 946 nM

**Q.** And the inhibition [8]?
**A.** < 50%

**Q.** And the inhibition [9]?
**A.** > 50%

**Q.** And the inhibition [10]?
**A.** < 50%

**Q.** And the inhibition [11]?
**A.** < 50%

**Q.** What about the Ki [12] of the same molecule?
**A.** 584 nM

**Q.** And the inhibition [13]?
**A.** < 50%

**Q.** What about the inhibition [14] of the same molecule?
**A.** < 50%

**Q.** And the inhibition [15]?
**A.** > 50%

**Q.** What about the Ki [16] of the same molecule?
**A.** 1050 nM

**Q.** What about the inhibition [17] of the same molecule?
**A.** < 50%

**Q.** And the inhibition [18]?
**A.** < 50%

**Q.** What about the Ki [19] of the same molecule?
**A.** 327 nM

**Q.** What about the inhibition [20] of the same molecule?
**A.** < 50%

**Q.** And the inhibition [21]?
**A.** < 50%

**Q.** What about the Ki [2] of the same molecule?
**A.** 1.21 nM

**Q.** What about the inhibition [22] of the same molecule?
**A.** < 50%

**Q.** What about the inhibition [23] of the same molecule?
**A.** < 50%

**Q.** And the inhibition [24]?
**A.** < 50%

**Q.** And the inhibition [25]?
**A.** < 50%

**Q.** And the inhibition [26]?
**A.** < 50%

**Q.** What about the inhibition [27] of the same molecule?
**A.** < 50%

**Q.** And the Ki [28]?
**A.** 198 nM

**Q.** And the “log K” value [3]?
**A.** 2.68

**Q.** And the Ki [29]?
**A.** 1.85 nM

**Q.** What about the Ki [30] of the same molecule?
**A.** 246 nM

**Q.** What about the inhibition [31] of the same molecule?
**A.** > 50%

**Q.** And the Ki [32]?
**A.** 180 nM

**Q.** And the inhibition [33]?
**A.** < 50%

**Q.** What about the inhibition [34] of the same molecule?
**A.** > 50%

**Q.** What about the inhibition [35] of the same molecule?
**A.** < 50%

**Q.** And the inhibition [36]?
**A.** < 50%

**Q.** And the inhibition [37]?
**A.** inactive

**Q.** And the Activity [38]?
**A.** 44%

**Q.** What about the inhibition [39] of the same molecule?
**A.** < 50%
